*1 amine or outer side, *2 acyl side, *3 side chain or, on linkers, in order; H or OH if unused. Where a SMILES comes first, the peptide text is derived from it. [ ]: non-standard residue; d: D form. The star is where a group is joined. Dolaproine = CO[C@@H]([C@@H]1CCCN1)[C@@H](C)C(=O)O; Dil = CC[C@H](C)[C@H](NC)[C@@H](CC(=O)O)OC; X11 = C[S+]([O-])NC[C@H](N[*:1])C(=O)[*:2]; Met(O2) = CS(=O)(=O)CC[C@H](N)C(=O)O; Tyrosinol = OC[C@H](Cc1ccc(O)cc1)N*; Val(3-OH) = CC(C)(O)[C@H](N)C(=O)O; Doe = c1ccc(C[C@H](N*)c2nccs2)cc1; X1 = C[C@@H](N*)[C@@H](O)c1ccccc1; Hyp = O=C(O)[C@@H]1C[C@@H](O)CN1; NMeT = CN[C@H](C(=O)O)[C@@H](C)O; Phe(ol) = N[C@H](CO)Cc1ccccc1; X4 = CN1C(=O)OC(C)(C)C1C(=O)*; NHPhenethyl = c1ccc(CCN*)cc1; NMeS = CN[C@@H](CO)C(=O)O; dNMeS = CN[C@H](CO)C(=O)O; Dap = NC[C@H](N)C(=O)O; Glycolyl = O=C(CO)*; Ms = CS(=O)(=O)*
Key:
[1] = tested on: Karpas299 NHL; experiment: In vitro cytotoxicity, cell proliferation assay (CellTiter-Glo, 96 h); assay type: cell-based; details: Homo sapiens, KARPAS-299, auristatin free drug
Method: (§1) The cytotoxicity of free drugs and drug conjugates were measured by a cell proliferation assay employing the protocol described in Promega Corp. Technical Bulletin TB288; and Mendoza et al., 2002, Cancer Res. 62:5485-5488), the methods of which are specifically incorporated by reference herein. Briefly, an aliquot of 40 μl of cell culture containing about 400 cells in medium is deposited in each well of a 384-well, opaque-walled plate. A 10 μL aliquot of free drug or drug conjugate is added to the experimental wells and incubated for 96 h and are then equilibrated to room temperature for approximately 30 minutes whereupon a volume of CellTiter-Glo™ reagent equal to the volume of cell culture medium present in each well is added. The contents are mixed for 2 minutes on an orbital shaker to induce cell lysis and the plate is incubated at room temperature for 10 minutes to stabilize the luminescence signal for recordation.

[2] = tested on: L540cy HL; experiment: as above; assay type: cell-based; details: auristatin free drug
Method: as §1

[3] = tested on: DEL ALCL; experiment: as above; assay type: cell-based; details: auristatin free drug
Method: as §1

[4] = LogD, miniaturized 1-octanol/pH 7.4 buffer shake flask method, LC/MS/MS; assay type: physicochemical
Method: The LogD (distribution coefficient) of the compounds was measured using a miniaturized 1-octanol/pH 7.4 buffer shake flask method followed by LC/MS/MS analysis. Values were determined by measuring the compound partitioned in the organic and buffered layers.

## CC[C@H](C)[C@@H]([C@@H](CC(=O)N1CCC[C@H]1[C@H](OC)[C@@H](C)C(=O)N[C@H](CO)Cc1ccccc1)OC)N(C)C(=O)[C@@H](NC(=O)[C@H](CO)NC)C(C)C [Example 12] (H-[NMeS]V[Dil][Dolaproine][Phe(ol)])
[1]
  IC50: 0.3 nM
[2]
  IC50: 4.8 nM
[3]
  IC50: 1.1 nM
[4]
  logD: 1.2

## CC[C@H](C)[C@@H]([C@@H](CC(=O)N1CCC[C@H]1[C@H](OC)[C@@H](C)C(=O)N[C@H](CO)Cc1ccccc1)OC)N(C)C(=O)[C@@H](NC(=O)[C@@H](NC)[C@@H](C)O)C(C)C [Example 13] (H-[NMeT]V[Dil][Dolaproine][Phe(ol)])
[1]
  IC50: 2.2 nM
[2]
  IC50: 5 nM
[3]
  IC50: 1.2 nM
[4]
  logD: 1.4

## CC[C@H](C)[C@@H]([C@@H](CC(=O)N1CCC[C@H]1[C@H](OC)[C@@H](C)C(=O)N[C@H](CO)Cc1ccccc1)OC)N(C)C(=O)[C@@H](NC(=O)[C@@H](CO)NC)C(C)C [Example 14] (H-[dNMeS]V[Dil][Dolaproine][Phe(ol)])
[1]
  IC50: 7.4 nM
[2]
  IC50: 10 nM
[3]
  IC50: 3.5 nM
[4]
  logD: 1.1

## CC[C@H](C)[C@@H]([C@@H](CC(=O)N1CCC[C@H]1[C@H](OC)[C@@H](C)C(=O)N[C@H](C)[C@@H](O)c1ccccc1)OC)N(C)C(=O)[C@@H](NC(=O)[C@H](CO)NC)C(C)C [Example 17] (H-[NMeS]V[Dil][Dolaproine]-X1)
[1]
  IC50: 7.6 nM
[2]
  IC50: 16.2 nM
[3]
  IC50: 2.5 nM
[4]
  logD: 1.1

## CC[C@H](C)[C@@H]([C@@H](CC(=O)N1CCC[C@H]1[C@H](OC)[C@@H](C)C(=O)NCCc1ccccc1)OC)N(C)C(=O)[C@@H](NC(=O)[C@H](CO)NC)C(C)C [Example 18] (H-[NMeS]V[Dil][Dolaproine]-NHPhenethyl)
[1]
  IC50: 2.3 nM
[2]
  IC50: 16 nM
[3]
  IC50: 0.6 nM
[4]
  logD: 1.9

## CC[C@H](C)[C@@H]([C@@H](CC(=O)N1CCC[C@H]1[C@H](OC)[C@@H](C)C(=O)N[C@@H](Cc1ccccc1)c1nccs1)OC)N(C)C(=O)[C@@H](NC(=O)[C@H](CO)NC)C(C)C [Example 19] (H-[NMeS]V[Dil][Dolaproine]-Doe)
[1]
  IC50: 0.5 nM
[2]
  IC50: 2.5 nM
[3]
  IC50: 0.4 nM
[4]
  logD: 2.4

## CC[C@H](C)[C@@H]([C@@H](CC(=O)N1CCC[C@H]1[C@H](OC)[C@@H](C)C(=O)N[C@@H](Cc1ccccc1)c1nccs1)OC)N(C)C(=O)[C@@H](NC(=O)[C@H](CO)NC)[C@@H](C)CC [Example 20] (H-[NMeS]I[Dil][Dolaproine]-Doe)
[1]
  IC50: 1 nM
[2]
  IC50: 4.7 nM
[3]
  IC50: 0.3 nM
[4]
  logD: 1.9

## CC[C@H](C)[C@@H]([C@@H](CC(=O)N1CCC[C@H]1[C@H](OC)[C@@H](C)C(=O)N[C@H](C)[C@@H](O)c1ccccc1)OC)N(C)C(=O)[C@@H](NC(=O)[C@@H](N)C(C)(C)O)C(C)C [Example 28] (H-[Val(3-OH)]V[Dil][Dolaproine]-X1)
[1]
  IC50: 9.4 nM
[2]
  IC50: 28 nM
[3]
  IC50: 7.8 nM
[4]
  logD: 2

## CC[C@H](C)[C@@H]([C@@H](CC(=O)N1CCC[C@H]1[C@H](OC)[C@@H](C)C(=O)N[C@H](CO)Cc1ccccc1)OC)N(C)C(=O)[C@@H](NC(=O)[C@@H](N)C(C)(C)O)C(C)C [Example 29] (H-[Val(3-OH)]V[Dil][Dolaproine][Phe(ol)])
[1]
  IC50: 13.7 nM
[2]
  IC50: 58 nM
[3]
  IC50: 12.7 nM
[4]
  logD: 2

## CC[C@H](C)[C@@H]([C@@H](CC(=O)N1CCC[C@H]1[C@H](OC)[C@@H](C)C(=O)N[C@H](CO)Cc1ccc(O)cc1)OC)N(C)C(=O)[C@@H](NC(=O)[C@@H](N)C(C)(C)O)C(C)C [Example 30] (H-[Val(3-OH)]V[Dil][Dolaproine]-Tyrosinol)
[1]
  IC50: 481 nM
[2]
  IC50: > 1000 nM
[3]
  IC50: 396 nM
[4]
  logD: 1.2

## CC[C@H](C)[C@@H]([C@@H](CC(=O)N1CCC[C@H]1[C@H](OC)[C@@H](C)C(=O)N[C@H](CO)Cc1ccccc1)OC)N(C)C(=O)[C@@H](NC(=O)C1N(C)C(=O)OC1(C)C)C(C)C (stereo partly shown) [Example 43] (X4-V[Dil][Dolaproine][Phe(ol)])
[1]
  IC50: 5.9 nM
[2]
  IC50: 19 nM
[3]
  IC50: 3.2 nM

## CC[C@H](C)[C@@H]([C@@H](CC(=O)N1CCC[C@H]1[C@H](OC)[C@@H](C)C(=O)N[C@H](CO)Cc1ccccc1)OC)N(C)C(=O)[C@@H](NC(=O)[C@@H](N)CNC(C)=O)C(C)C [Example 46] (H-[Dap](Ac)V[Dil][Dolaproine][Phe(ol)])
[1]
  IC50: 264 nM
[2]
  IC50: > 1000 nM
[3]
  IC50: 141 nM

## CC[C@H](C)[C@@H]([C@@H](CC(=O)N1CCC[C@H]1[C@H](OC)[C@@H](C)C(=O)N[C@H](CO)Cc1ccccc1)OC)N(C)C(=O)[C@@H](NC(=O)[C@@H](N)CCS(C)(=O)=O)C(C)C [Example 47] (H-[Met(O2)]V[Dil][Dolaproine][Phe(ol)])
[1]
  IC50: > 1000 nM
[2]
  IC50: > 1000 nM
[3]
  IC50: > 1000 nM

## CC[C@H](C)[C@@H]([C@@H](CC(=O)N1CCC[C@H]1[C@H](OC)[C@@H](C)C(=O)N[C@H](CO)Cc1ccccc1)OC)N(C)C(=O)[C@@H](NC(=O)[C@@H](N)CN[S+](C)[O-])C(C)C (stereo partly shown) [Example 48] (H-[X11]V[Dil][Dolaproine][Phe(ol)])
[1]
  IC50: 110 nM
[2]
  IC50: > 1000 nM
[3]
  IC50: 41 nM

## CC[C@H](C)[C@@H]([C@@H](CC(=O)N1CCC[C@H]1[C@H](OC)[C@@H](C)C(=O)N[C@H](CO)Cc1ccccc1)OC)N(C)C(=O)[C@@H](NC(=O)[C@@H]1C[C@@H](O)CN1)C(C)C [Example 49] (H-[Hyp]V[Dil][Dolaproine][Phe(ol)])
[1]
  IC50: 35 nM
[2]
  IC50: 76 nM
[3]
  IC50: 32 nM

## CC[C@H](C)[C@@H]([C@@H](CC(=O)N1CCC[C@H]1[C@H](OC)[C@@H](C)C(=O)N[C@H](CO)Cc1ccccc1)OC)N(C)C(=O)[C@@H](NC(=O)[C@@H](N)CNS(C)(=O)=O)C(C)C [Example 50] (H-[Dap](Ms)V[Dil][Dolaproine][Phe(ol)])
[1]
  IC50: > 1000 nM
[2]
  IC50: > 1000 nM
[3]
  IC50: > 1000 nM

## CC[C@H](C)[C@@H]([C@@H](CC(=O)N1CCC[C@H]1[C@H](OC)[C@@H](C)C(=O)N[C@H](CO)Cc1ccccc1)OC)N(C)C(=O)[C@@H](NC(=O)[C@@H](N)CNC(=O)CO)C(C)C [Example 51] (H-[Dap](Glycolyl)V[Dil][Dolaproine][Phe(ol)])
[1]
  IC50: 224 nM
[2]
  IC50: > 1000 nM
[3]
  IC50: 93 nM

## CC[C@H](C)[C@@H]([C@@H](CC(=O)N1CCC[C@H]1[C@H](OC)[C@@H](C)C(=O)NC(CO)Cc1nccs1)OC)N(C)C(=O)[C@@H](NC(=O)[C@H](CO)N(C)C)C(C)C (stereo partly shown) [Example 52]
[1]
  IC50: 58 nM
[2]
  IC50: 438 nM
[3]
  IC50: 43 nM

## CC[C@H](C)[C@@H]([C@@H](CC(=O)N1CCC[C@H]1[C@H](OC)[C@@H](C)C(=O)NC(CO)Cn1ccnn1)OC)N(C)C(=O)[C@@H](NC(=O)[C@H](CO)N(C)C)C(C)C (stereo partly shown) [Example 53]
[1]
  IC50: > 1000 nM
[2]
  IC50: > 1000 nM
[3]
  IC50: > 1000 nM

## CC[C@H](C)[C@@H]([C@@H](CC(=O)N1CCC[C@H]1[C@H](OC)[C@@H](C)C(=O)NC(CCO)Cc1ccccc1)OC)N(C)C(=O)[C@@H](NC(=O)[C@H](CO)N(C)C)C(C)C (stereo partly shown) [Example 54]
[1]
  IC50: 6 nM
[2]
  IC50: 274 nM
[3]
  IC50: 7 nM

## CC[C@H](C)[C@@H]([C@@H](CC(=O)N1CCC[C@H]1[C@H](OC)[C@@H](C)C(=O)NC(Cc1ccccc1)c1cccs1)OC)N(C)C(=O)[C@@H](NC(=O)[C@H](CO)N(C)C)C(C)C (stereo partly shown) [Example 55]
[1]
  IC50: 1 nM
[2]
  IC50: 16 nM
[3]
  IC50: 0.8 nM

## CC[C@H](C)[C@@H]([C@@H](CC(=O)N1CCC[C@H]1[C@H](OC)[C@@H](C)C(=O)NC(Cc1ccccc1)c1ncco1)OC)N(C)C(=O)[C@@H](NC(=O)[C@H](CO)N(C)C)C(C)C (stereo partly shown) [Example 56]
[1]
  IC50: 0.9 nM
[2]
  IC50: 24 nM
[3]
  IC50: 1 nM

## CC[C@H](C)[C@@H]([C@@H](CC(=O)N1CCC[C@H]1[C@H](OC)[C@@H](C)C(=O)N[C@@H](Cc1ccccc1)[C@@H](O)CO)OC)N(C)C(=O)[C@@H](NC(=O)[C@H](CO)N(C)C)C(C)C [Example 57]
[1]
  IC50: 3 nM
[2]
  IC50: 49 nM
[3]
  IC50: 4 nM
